Assay results: patent US20100311805A1, “COMBINATION OF HISTONE DEACETYLASE INHIBITORS AND RADIATION” (NOVARTIS AG, priority 2005, published 2010)

Assays:
H23 cell line [1] = test: Nuclear morphology (pyknotic nuclei) by DAPI staining, H23; format: cell-based, human
Method: (§1) To confirm the ability of LBH589 to sensitize human lung cancer cell lines to radiation induced apoptosis, nuclear morphology studies were performed. […] DAPI staining of cells treated with LBH589 and IR. Cells were subcultured onto slides and treated with 25 nM LBH589 for 18 hours followed by 3 Gy. Eighteen (18) hours later cells were fixed and stained with DAPI. Shown is the percentage of pyknotic nuclei and standard error (n=3) determined by manual counts from microscopy. *P<0.05 compared to control.

H23 cell line [2] = test: Annexin V-FITC/PI flow cytometry analysis of apoptosis, H23; format: cell-based, human
Method: (§2) LBH589 enhances radiation induced apoptosis. To study the effect of HDAC inhibition by LBH589 on apoptosis three in vitro experiments were performed. FIG. 2 show results from Annexin V-FITC/PI flow cytometry analysis of apoptosis. H23 and H460 cells lines were treated with 25 nM LBH589 for 18 hrs then irradiated with 3 Gy. Twenty (20) hours later, cells were harvested, stained with Annexin-FITC and PI, and analyzed by flow cytometry. Shown is the number of apoptotic cells and standard error (n=3) for each treatment condition. *P<0.05 compared to control.

cleaved caspase3 [3] = test: Western immunoblot for cleaved caspase3, H23 whole cell lysates; format: cell-based, human
Method: (§3) Western Immunoblots. LLC, H450 and H23 cells are serum starved overnight in DMEM/F-12 media (Gibco). Cells are then treated with 10 μM of Compound III for 1 hour and/or irradiated with 3 Gy. Cells are washed twice with PBS and lysis buffer ([…] Tris, 150 mM NaCl, 1 mM EDTA, 1% Triton X-100, 2.5 mM Na PP, 1 mM phenylmethylsulfonyl fluoride, and 1 μg/mL leupeptin) are added. Protein concentration are quantified by the Bio-Rad method. Twenty (20) μg of total protein are loaded into each well and separated by 7% or 10% SDS-PAGE gel, depending on the size of the target protein being investigated. The proteins are transferred onto nitrocellulose membranes (Hybond ECL; Amersham, Arlington Heights, Ill.) and probed with primary antibodies to caspase3, cleaved caspase3, phospho-Akt, Akt, PDGFR α and β (Cell Signaling; 1:1000). Blots are washed and probed with goat anti-rabbit secondary antibody (Sigma; 1:1000). Cleavage of caspase 3 was analyzed to verify the role of apoptosis in cells treated with LBH589 and radiation. Western blot analysis was performed on H23 and H460 whole cell lysates. […] LBH589 induced caspase3 cleavage. H23 and H460 cells were treated with 25 nM LBH589 for 18 hours then irradiated with 3 Gy. Six hours later, protein was extracted, quantified, run in a 12% SDS-polyacrylamide gel, transferred, and probed with antibodies to cleaved caspase3 and actin. […]

γ-H2AX foci [4] = test: γ-H2AX foci immunostaining, H23; format: cell-based, human
Method: LBH589 prolongs the duration of radiation induced γ-H2AX foci. Immunostaining was performed to study γ-H2AX foci present at DNA double strand breaks. […] The red staining of γ-H2AX foci and blue staining of the DAPI counterstain are shown. 3 Gy induced γ-H2AX foci as early as 30 minutes following treatment. These foci disappeared by 6 hrs in cell lines treated with IR alone. […] In comparison, LBH589 added 18 hours prior to IR prolonged the duration of γ-H2AX foci for up to 24 hours after IR (42 hours after LBH589 administration). […] LBH589 prolongs duration of γ-H2AX foci in irradiated lung cancer cells. H23 cell line received the indicated treatment of 25 nM LBH589 and/or 3 Gy. Anti-γ-H2AX antibody was used for immunostaining with rhodamine red labeled secondary antibody (red). Cells were counterstained with DAPI (blue). Shown are representative photographs of the H23 cells line (A) at the indicated time points after IR. Arrows point to apoptotic cells. B, shown is the mean and standard error of cells with γ-H2AX nuclear foci. *P<0.05 compared to control.

[5] = mouse, in vivo
Method: LBH589 enhances tumor growth delay in vivo. H460 cells were injected into the hind limb of mice. After tumor formation the mice were treated with two oral doses of 40 mg LBH589 and/or five 3 Gy fractions over seven days. […] IR alone delayed growth by approximately 4 days (P<0.001).

H460 cell line [6] = test: Nuclear morphology (pyknotic nuclei) by DAPI staining, H460; format: cell-based, human
Method: as §1

H460 cells = test: Tumor growth delay in H460 xenograft tumor model; format: in vivo, nude mice; settings: 10-fold increase in tumor volume as reference
Method: Tumor Volume Assessment. LLC, H450 and H23 cells are implanted into C57BL6 and nude mice, respectively. 106 viable cells suspended in 0.1 mL of cell medium are injected s.c. into the hind-limb. Each group of mice are comprised of 12 mice which are stratified into two groups to create approximately the same mean tumor volume. The mean volume of the tumors in mice at the time of treatment (day 0) with radiation, control, irradiated, LBH589 alone and LBH589 given prior to radiation are approximately 200 mm^3. Irradiated mice are immobilized with 140 μL of ketamine, and the entire body are shielded with lead, except for the tumor-bearing hind limb. A total dose of 21 Gy are administered in seven fractionated doses on days 0-4, 7 and 8. The LBH589 group receive of LBH589 administered p.o. via esophageal injection on days-1 and 6.
Tumor volumes were measured on days 0, 2, 4, 7, 9, 11, 14, 16, 18, 20 and 22 using skin calipers. Tumor volumes were calculated from a formula (a×b×c/2) that are derived from the formula for an ellipsoid (πd3/6). Data were calculated as the percentage of original (day 0) tumor volume and graphed as fractional tumor volume±SD for each treatment group. […]
H460 cells were injected in the hind limb of nude mice and allowed to grow for one week. […] B, shown is the mean tumor growth delay and standard error calculated using a 10-fold increase in tumor volume as reference.

γ-H2AX foci [7] = test: γ-H2AX foci immunostaining, H460; format: cell-based, human
HDAC4 [8] = test: HDAC4 immunostaining (compartmentalization), H460; format: cell-based, human
Method: (§4) Immunostaining of HDAC4 was performed on H23 and H460 cell lines to identify the effect of LBH589 on HDAC4 compartmentalization. […] When H460 cells were treated with 3 Gy, HDAC4 localized to the nucleus at 2 hours and minimal HDAC4 was present in the cytoplasm.

HDAC4 [9] = test: HDAC4 immunostaining (compartmentalization), H23; format: cell-based, human; settings: LBH589 added prior to IR
Method: as §4

cleaved caspase3 [10] = test: Western immunoblot for cleaved caspase3, H460 whole cell lysates; format: cell-based, human
Method: as §3

H460 cell line [11] = test: Annexin V-FITC/PI flow cytometry analysis of apoptosis, H460; format: cell-based, human
Method: as §2

H460 cell lines = test: Clonogenic analysis of H460 cell lines with LBH589 and 0-6 Gy; format: cell-based, human
Method: Results. LBH589 sensitizes NSCLC to the cytotoxic effects of ionizing radiation. Clonogenic analysis of H460 cell lines was performed using LBH589 and 0-6 Gy. […] Cells were suspended, counted with a hemocytometer, and plated at specific cell densities. Once attached, cells were treated with LBH589 for 1 hour or 18 hours followed by 0, 2, 4, or 6 Gy. Media was changed after IR and the cells were allowed to proliferate for 10 days. Shown is the average and standard error of the relative fractions of colonies (n=3).

[12] = 25 nM LBH589 18 hours prior to 3 Gy, 18 hours later
[13] = 25 nM LBH589 18 hours prior to IR 3 Gy, 6 hours later

Compound: Cc1[nH]c2ccccc2c1CCNCc1ccc(/C=C/C(=O)NO)cc1 [LBH589, N-hydroxy-3-[4-[[[2-(2-methyl-1H-indol-3-yl)-ethyl]-amino]methyl]phenyl]-2E-2-propenamide]
- percentage of pyknotic nuclei (H23 cell line [1]; [12]): over 10%
- apoptotic nuclei (H23 cell line [1]; LBH589 alone): 4%
- number of apoptotic cells (H23 cell line [2]; 25 nM LBH589 18 hrs prior to 3 Gy, 20 hours later, control 7%): 30%
- number of apoptotic cells (H23 cell line [2]; LBH589 alone 25 nM): only a minimal increase
- caspase3 cleavage, increase with LBH589 prior to IR (cleaved caspase3 [3]; [13]): not as prominent
- caspase3 cleavage (cleaved caspase3 [3]; treatment with 25 nM LBH589): increase in caspase3 cleavage was evident
- cells with γ-H2AX nuclear foci at 24 hours (γ-H2AX foci [4]; 25 nM LBH589 alone): < 5%
- residual γ-H2AX foci at 24 hours (γ-H2AX foci [4]; 25 nM LBH589 prior to IR 3 Gy): 60%
- duration of γ-H2AX foci after IR (γ-H2AX foci [4]; LBH589 added 18 hours prior to IR 3 Gy): up to 24 hours
- γ-H2AX foci (γ-H2AX foci [4]; LBH589 alone for 20 hours): modest increase in γ-H2AX foci
- signs of toxicity as monitored by weight loss and mobility [5]: minimal signs of toxicity
- percentage of pyknotic nuclei (H460 cell line [6]; [12]): over 10%
- apoptotic nuclei (H460 cell line [6]; LBH589 alone): 2%
- tumor growth delay (H460 cells; LBH589 alone, two oral doses of 40 mg over seven days): two
- tumor growth delay (H460 cells; combined: two oral doses of 40 mg LBH589 and five 3 Gy fractions over seven days): approximately 20 days
- cells with γ-H2AX nuclear foci at 24 hours (γ-H2AX foci [7]; 25 nM LBH589 alone): < 5%
- residual γ-H2AX foci at 24 hours (γ-H2AX foci [7]; 25 nM LBH589 prior to IR 3 Gy): 60%
- HDAC4 nuclear localization (HDAC4 [8]; LBH589 added prior to IR 3 Gy): markedly limited HDAC4 nuclear localization
- HDAC4 staining / localization (HDAC4 [8]; LBH589 alone): background HDAC4 staining in the cytoplasm and nucleus
- HDAC4 nuclear localization (HDAC4 [9]): A similar effect was seen
- caspase3 cleavage (cleaved caspase3 [10]; [13]): increased levels of caspase3 cleavage
- caspase3 cleavage (cleaved caspase3 [10]; treatment with 25 nM LBH589): increase in caspase3 cleavage was evident
- number of apoptotic cells (H460 cell line [11]; 25 nM LBH589 18 hrs prior to 3 Gy, 20 hours later, control 6%): 25%
- number of apoptotic cells (H460 cell line [11]; LBH589 alone 25 nM): only a minimal increase
- colony survival compared to untreated cells (H460 cell lines; LBH589 1 hour and 18 hours prior to IR (0-6 Gy), 10 days proliferation): synergistic decrease in colony survival
- plating efficiency (H460 cell lines; LBH589 alone for 1 hour, compared to the control): no reduced plating efficiency
- plating efficiency (H460 cell lines; LBH589 alone for 18 hours): significantly reduced plating efficiency
